# Test results taken from patent US20220119399A1, “COMPOUNDS AND COMPOSITIONS THAT CAUSE MYCN AND/OR CMYC DEGRADATION AND METHODS OF USE THEREOF” (THE TRUSTEES OF COLUMBIA UNIVERSITY IN THE CITY OF NEW YORK, priority 2018, published 2022).
# “Also recorded” adds a separate entry of the source.
# Assays:
# cMyc = test: Western blot of cMyc in A549 cells; type: cell-based; details: A549 cells, 5, 10, or 15 μM, 24 hrs
# Excerpt: Membranes were blocked using Odyssey Blocking Buffer (LI-COR) for 1 hr at room temperature. […] Primary antibodies used in these studies include: MycN (CST; 1:500 dilution), Actin (SCBT; 1:2000 dil.), cMYC (CST; 1:500 dil.), pAKT (S473; CST; 1:500 dil.), AKT (CST; 1:2000), pP70 (T389; CST; 1:1000) P70 (CST; 1:1000).
# There are some shared upstream regulatory pathways that govern both MycN and cMyc expression, including mTOR signaling cascade (Guertin and Sabatini 2007; Hay and Sonenberg 2004). We hypothesized that isopomiferin could disrupt the expression of cMyc as well. We identified a cMyc-expressing lung cancer line, A549, and treated cells with 5, 10, or 15 μM isopomiferin for 24 hrs (FIG. 3D).
# [1] = system: MycN^AMP regulatory module (Master Regulators, TCM); test: PLATE-Seq with VIPER analysis: reversion of the MycN^AMP master regulator module; type: cell-based, human; details: SK-N-Be2 cells, IC20, 24 hrs
# Excerpt: Reads were mapped against the human reference genome version Grch38 using the STAR aligner, and used the variance stabilizing transformation from the DESeq2 package for R to normalize each plate. Next, we corrected for batch effect due to having compounds replicates on separate plates. We used the function combat from the sva package for R to compute the batch-corrected normalized gene expression, and fitted a linear model for each compound against the set of DMSO controls on each plate (6 wells per plate per DMSO-treated cells). We used the limma package for R to fit the linear model and to compute p-values and moderated t-statistics for each gene. For each compound, we used a vector of these statistics to generate a gene expression profile of z-scores representing the compound effect as differential between post- and pre-treatment.
# Each compound gene expression profile was analyzed using the VIPER algorithm (Alvarez et al. 2016) with TARGET and NRC NBL interactomes, reverse-engineered as described in (Rajbhandari et al. 2018), resulting in two protein activity profiles for each compound that were integrated using Stouffer's z-score method.
# [2] = Stability in mouse plasma; type: in vitro ADME; details: 4 h incubation, 20 μM
# Procedure: Mouse plasma was diluted with 100 mM PBS buffer at 7.4 pH and at a 1:1 ratio, and warmed to 37° C. Test compounds were added to the plasma solution at 20 μM and incubated for the indicated time point. Reactions was quenched by aliquoting 15 μL of solution into 60 μL ice-cold acetonitrile containing an internal standard. Compounds were quantified by LC-MS, as detailed above.
compound,measurement,setting,value
CC1(C)C=Cc2c(c3c(c4c(=O)c(-c5ccc(O)c(O)c5)coc24)OC(C)(C)CC3)O1 [isopomiferin],cMyc protein abundance,cMyc,suppressed cMyc protein abundance in A549 in a dose dependent manner
same,reversion of the MR regulatory module / TCM (VIPER of PLATE-Seq),[1],the top compound of the 90 tested; also recorded: had the strongest effect on the TCM
CC(C)=CCc1c2c(c3occ(-c4ccc(O)c(O)c4)c(=O)c3c1O)C=CC(C)(C)O2 [pomiferin],compound remaining in mouse plasma,[2],approximately 75%
